Test results: patent publication US4327097A, “Novel penicillins” (Toyama Chemical Co., Ltd., priority 1974, dated 1982)
In brackets after ≈: the same amount, converted by molar mass.

How the values were obtained:
[1] = system: Pseudomonas aeruginosa I.F.O.; assay: MIC, plate method, standard strains; format: cell-based; conditions: unit assumed; for MIC Pseudomonas aeruginosa I.F.C: Table 3, standard strain; for MIC Pseudomonas aeruginosa I.F.O.: Table 4, standard strain
Description: (§1) The minimum inhibitory concentration (MIC) was determined by the plate method disclosed in "Chemotherapy" (Japan), Vol. 16, (1968), pages 98-99. The culture medium used was a Heart infusion agar (pH 7.4). The number of the cells per plate used in the inoculum was 10^4 (10^6 cells/ml).

[2] = system: Staphylococcus aureus 209p; assay: MIC, plate method, standard strains; format: cell-based; conditions: unit assumed
Description: as §1

Proteus vulgaris 3027 = assay: MIC, plate method, standard strains; format: cell-based; conditions: unit assumed
Description: as §1

Klebsiella pneumoniae [3] = assay: MIC, plate method, standard strains; format: cell-based; conditions: unit assumed
Description: as §1

Escherichia coli NIHJ = assay: MIC, plate method, standard strains; format: cell-based; conditions: unit assumed; for MIC Esche--richin coil NIHJ: Table 3, standard strain; for MIC Escherichia coli NIHJ: Table 4, standard strain
Description: as §1

[4] = system: β-lactamase, Pseudomonas aeruginosa GN 238; assay: Resistant activity against β-lactamase, iodometric assay; format: biochemical; conditions: β-lactamase from Pseudomonas aeruginosa GN 238; Potassium Penicillin G = 100
Description: (3) Resistant activity against β-lactamase, Pseudomonas aerugionsa GN 238:
The resistant activity of each compound against β-lactamase was measured in the manner described below.
β-Lactamase was prepared from Pseudomonas aeruginosa GN 238. This microorganism was cultured in 100 ml of a medium containing 2 g of yeast extract, 10 g of polypeptone, 2 g of glucose, 7 g of disodium hydrogen phosphate, 2 g of potassium dihydrogen phosphate, 1.2 g of ammonium sulfate and 0.4 g of magnesium sulfate, per liter, in a 500-ml Erlenmeyer flask for 6 hrs. at 37° C. with shaking. The resulting cells were collected by centrifugation (5,000 r.p.m.×10 min.), washed three times with 0.1 M phosphate buffer (pH 7.0). Subsequently, the cells were subjected to sonication (20 KHz, 20 min.) and then centrifuged at 15,000 r.p.m. for 60 min. By using the supernatant of enzyme fluid, the resistance of each compound against β-lactamase was determined by the iodometric assay method. Each numeral shown in Table 7 is a relative activity value calculated by assuming as 100 the activity of the control Potassium Penicillin G.

Staphylococcus aureus = assay: MIC against clinical isolates; format: cell-based; conditions: Table 5-1, clinical isolate; unit assumed
Klebsiella pneumoniae [5] = assay: MIC against clinical isolates; format: cell-based; conditions: Table 5-4, clinical isolate; unit assumed
Shigella flexneri = assay: MIC against clinical isolates; format: cell-based; conditions: Table 5-5, clinical isolate; unit assumed
Description: as §1
(§2) MIC was determined in the same manner as in the preceding paragraph (1).

Shigella sonnei = assay: MIC against clinical isolates; format: cell-based; conditions: Table 5-5, clinical isolate; unit assumed
Description: as §1, §2

Escherichia coli = assay: MIC against clinical isolates; format: cell-based; conditions: Table 5-2, clinical isolate; unit assumed
Pseudomonas aeruginosa = assay: MIC against clinical isolates; format: cell-based; conditions: Table 5-3, clinical isolate; unit assumed
[6] = Table 3, standard strain, Heart infusion agar pH 7.4

For `CC1(C)SC2C(NC(=O)C(NC(=O)N3CCN(CCCl)C(=O)C3=O)c3ccccc3)C(=O)N2C1C(=O)O` (single isomer, unassigned) [Compound 44], the MIC Pseudomonas aeruginosa I.F.C [1] was 6.25 µg/mL (≈ 11.3 µM), the MIC Staphylococcus aureus 209p [2, 6] was less than 1.57 µg/mL and the MIC Proteus vulgaris 3027 (Proteus vulgaris 3027; Table 3, standard strain) was less than 1.57 µg/mL. The MIC Klebsiella pneumoniae (Klebsiella pneumoniae [3]; Table 3, standard strain) was less than 1.57 µg/mL and the MIC Esche--richin coil NIHJ (Escherichia coli NIHJ) was less than 1.57 µg/mL.
`Cc1csc(SCC2=C(C(=O)O)N3C(=O)C(NC(=O)C(NC(=O)N4CCN(C)C(=O)C4=O)c4ccccc4)C3SC2)n1` (single isomer, unassigned) [compound 71] was tested, and the MIC Pseudomonas aeruginosa I.F.O. [1] was 50 µg/mL (≈ 79.3 µM), the MIC Staphylococcus aureus 209p ([2]; Table 4, standard strain) was less than 0.79 µg/mL and the MIC Proteus vulgaris 3027 (Proteus vulgaris 3027; Table 4, standard strain) was less than 0.79 µg/mL. The MIC Klebsiella pneumoniae (Klebsiella pneumoniae [3]; Table 4, standard strain) was 1.56 µg/mL (≈ 2.47 µM) and the MIC Escherichia coli NIHJ (Escherichia coli NIHJ) was less than 0.79 µg/mL.
`CCN1CCN(C(=O)NC(C(=O)NC2C(=O)N3C(C(=O)O)=C(CSc4cnn[nH]4)CSC23)c2ccccc2)C(=O)C1=O` (single isomer, unassigned) [compound 75] was tested, and the MIC Pseudomonas aeruginosa I.F.O. [1] was 50 µg/mL (≈ 81.3 µM), the MIC Staphylococcus aureus 209p ([2]; Table 4, standard strain) was 1.57 µg/mL (≈ 2.55 µM) and the MIC Proteus vulgaris 3027 (Proteus vulgaris 3027; Table 4, standard strain) was 12.5 µg/mL (≈ 20.3 µM). The MIC Klebsiella pneumoniae (Klebsiella pneumoniae [3]; Table 4, standard strain) was 1.57 µg/mL (≈ 2.55 µM) and the MIC Escherichia coli NIHJ (Escherichia coli NIHJ) was less than 0.4 µg/mL.
`CCN1CCN(C(=O)NC(C(=O)NC2C(=O)N3C(C(=O)O)=C(COC)CSC23)c2ccccc2)C(=O)C1=O` (single isomer, unassigned) [compound 80] gave an MIC Pseudomonas aeruginosa I.F.O. [1] of 50 µg/mL (≈ 91.6 µM), an MIC Staphylococcus aureus 209p ([2]; Table 4, standard strain) of 0.79 µg/mL (≈ 1.45 µM) and an MIC Proteus vulgaris 3027 (Proteus vulgaris 3027; Table 4, standard strain) of 6.25 µg/mL (≈ 11.5 µM). It also gave an MIC Klebsiella pneumoniae (Klebsiella pneumoniae [3]; Table 4, standard strain) of 3.13 µg/mL (≈ 5.74 µM) and an MIC Escherichia coli NIHJ (Escherichia coli NIHJ) of less than 0.1 µg/mL.
`Cn1nnnc1SCC1=C(C(=O)O)N2C(=O)C(NC(=O)C(NC(=O)N3CCN(CCO)C(=O)C3=O)c3ccc(O)cc3)C2SC1` (single isomer, unassigned) [compound 83] gave an MIC Pseudomonas aeruginosa I.F.O. [1] of 25 µg/mL (≈ 37.8 µM), an MIC Staphylococcus aureus 209p ([2]; Table 4, standard strain) of 1.57 µg/mL (≈ 2.37 µM) and an MIC Proteus vulgaris 3027 (Proteus vulgaris 3027; Table 4, standard strain) of less than 1.57 µg/mL. The MIC Klebsiella pneumoniae (Klebsiella pneumoniae [3]; Table 4, standard strain) was less than 1.57 µg/mL and the MIC Escherichia coli NIHJ (Escherichia coli NIHJ) was less than 1.57 µg/mL.
In the case of `CCCCCCCCN1CCN(C(=O)N[C@@H](C(=O)N[C@@H]2C(=O)N3[C@@H]2SC(C)(C)[C@@H]3C(=O)O)c2ccccc2)CC1=O` [Compound 30], the “Relative activity (%), resistant activity against β-lactamase” value [4] is reported as 3%.
`CCN1CCN(C(=O)N[C@@H](C(=O)N[C@@H]2C(=O)N3[C@@H]2SC(C)(C)[C@@H]3C(=O)O)c2ccccc2)C(=O)C1=O` [Compound 36] gave an MIC Staphylococcus aureus F-2 (Staphylococcus aureus) of 3.13 µg/mL (≈ 6.05 µM), an MIC Staphylococcus aureus F-3 (Staphylococcus aureus) of 1.57 µg/mL (≈ 3.03 µM) and an MIC Staphylococcus aureus F-4 (Staphylococcus aureus) of 6.25 µg/mL (≈ 12.1 µM). It also gave an MIC Staphylococcus aureus MS 8588 (Staphylococcus aureus) of 3.13 µg/mL (≈ 6.05 µM), an MIC Staphylococcus aureus MS 8596 (Staphylococcus aureus) of 3.13 µg/mL (≈ 6.05 µM) and an MIC Staphylococcus aureus MS 8684 (Staphylococcus aureus) of 3.13 µg/mL (≈ 6.05 µM). It also gave an MIC Staphylococcus aureus MS 8713 (Staphylococcus aureus) of 6.25 µg/mL (≈ 12.1 µM), an MIC Klebsiella pneumoniae GN 917 (Klebsiella pneumoniae [5]) of 6.25 µg/mL (≈ 12.1 µM) and an MIC Pseudomonas aeruginosa I.F.C [1] of 6.25 µg/mL (≈ 12.1 µM). It also gave an MIC Staphylococcus aureus 209p [2, 6] of less than 1.57 µg/mL, an MIC Proteus vulgaris 3027 (Proteus vulgaris 3027; Table 3, standard strain) of less than 1.57 µg/mL and an MIC Klebsiella pneumoniae (Klebsiella pneumoniae [3]; Table 3, standard strain) of less than 1.57 µg/mL. The MIC Esche--richin coil NIHJ (Escherichia coli NIHJ) was less than 1.57 µg/mL, the “Relative activity (%), resistant activity against β-lactamase” value [4] was 14% and the MIC Shigella flexneri JS 11215 (Shigella flexneri) was 100 µg/mL (≈ 193 µM). For the same compound, the MIC Shigella flexneri JS 11839 (Shigella flexneri) was 3.13 µg/mL (≈ 6.05 µM), the MIC Shigella sonnei JS 11232 (Shigella sonnei) was 50 µg/mL (≈ 96.6 µM) and the MIC Shigella sonnei JS 11755 (Shigella sonnei) was 3.13 µg/mL (≈ 6.05 µM). It also gave an MIC Escherichia coli GN 3435 (Escherichia coli) of 1.57 µg/mL (≈ 3.03 µM), an MIC Escherichia coli GN 3452 (Escherichia coli) of 3.13 µg/mL (≈ 6.05 µM) and an MIC Escherichia coli GN 3481 (Escherichia coli) of 3.13 µg/mL (≈ 6.05 µM). For the same compound, the MIC Escherichia coli K-1 (Escherichia coli) was 3.13 µg/mL (≈ 6.05 µM), the MIC Escherichia coli K-2 (Escherichia coli) was 3.13 µg/mL (≈ 6.05 µM) and the MIC Escherichia coli K-4 (Escherichia coli) was 1.57 µg/mL (≈ 3.03 µM). It also gave an MIC Pseudomonas aeruginosa GN 82 (Pseudomonas aeruginosa) of 6.25 µg/mL (≈ 12.1 µM), an MIC Pseudomonas aeruginosa GN 163 (Pseudomonas aeruginosa) of 6.25 µg/mL (≈ 12.1 µM) and an MIC Pseudomonas aeruginosa GN 221 (Pseudomonas aeruginosa) of 3.13 µg/mL (≈ 6.05 µM). It also gave an MIC Pseudomonas aeruginosa GN 376 (Pseudomonas aeruginosa) of 6.25 µg/mL (≈ 12.1 µM), an MIC Pseudomonas aeruginosa GN 383 (Pseudomonas aeruginosa) of 6.25 µg/mL (≈ 12.1 µM) and an MIC Pseudomonas aeruginosa GN 1091 (Pseudomonas aeruginosa) of 6.25 µg/mL (≈ 12.1 µM).
